Laboratory results reported in PMC7337064, “Parsing the functional specificity of Siderocalin/Lipocalin 2/NGAL for siderophores and related small-molecule ligands” (Journal of Structural Biology: X, 2019).

How the values were obtained:
Scn [1] = target: T1, Scn (Homo sapiens, UniProt P80188); experiment: Fe-ENT/c-di-GMP competition mixing experiment (ultrafilter retentates); format: binding; conditions: Scn premixed with 25-fold molar excess c-di-GMP, then equimolar Fe-ENT, washed in ultrafilter
T1 construct: made in house
T1 sequence (P80188 21-198): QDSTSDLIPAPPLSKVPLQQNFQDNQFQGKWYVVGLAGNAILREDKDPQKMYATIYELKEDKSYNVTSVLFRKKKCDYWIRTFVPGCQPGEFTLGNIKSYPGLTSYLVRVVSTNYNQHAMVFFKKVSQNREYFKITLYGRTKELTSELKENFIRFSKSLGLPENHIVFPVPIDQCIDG
Excerpt: Li and coworkers reported that c-di-GMP could compete with bacterial ferric siderophores for Scn binding, alleviating Scn blockade of bacterial iron acquisition during infection ([Li et al., 2015]). This conclusion was based on a computational inverse docking screen, isothermal titration calorimetry (ITC) binding assays, and bacterial growth assays. However, c-di-GMP is not particularly complementary in shape to the Scn calyx, and lacks elements crucial for calyx binding, though its net negative charge does complement the overall positive charge of the calyx. Also, the reported micromolar KD by ITC for the Scn/c-di-GMP interaction was orders-of-magnitude weaker than the sub-nanomolar KDs of Scn for ferric complexes of bacterial CAM-type siderophores previously determined by FQ ([Abergel et al., 2006a], [Abergel et al., 2006b], [Goetz et al., 2002], [Hoette et al., 2008], [Miethke and Skerra, 2010]). [We noted that Li and coworkers also reported a discrepant micromolar KD for the Scn/Fe-ENT interaction by ITC.] However, this conundrum was easily resolved by a simple mixing experiment not previously performed (Fig. 7C). Colorless apo-Scn protein was premixed with a 25-fold molar excess of colorless c-di-GMP, at a concentration well above the reported micromolar KD, and allowed to equilibrate. Fe-ENT, which is colored a deep red, was then added at an equimolar ratio to Scn. […]

Scn [2] = target: Scn; set-up: method as in Li et al., 2015; conditions: ref Li et al., 2015; cited from earlier work

Nc1nc2c(ncn2[C@@H]2O[C@@H]3COP(=O)(O)O[C@H]4[C@@H](O)[C@H](n5cnc6c(=O)[nH]c(N)nc65)O[C@@H]4COP(=O)(O)O[C@H]3[C@H]2O)c(=O)[nH]1 [c-di-GMP, cyclic diguanylate monophosphate]
competition with Fe-ENT for Scn binding (Scn [1]): too weak to impede binding of ferric siderophores
KD by ITC (Scn [2]): micromolar
